“Also recorded” adds a separate entry of the source.
Assays:
hDMT1 (SLC11A2) = target: T1, hDMT1 (SLC11A2) (Homo sapiens, UniProt P49281); assay: radioactive iron uptake assay in HEK293 cells stably overexpressing hDMT1; assay type: cell-based; details: for mode of inhibition: 55Fe2+ uptake kinetics; for Ki: [Fe^2+] → 0, Dixon plot analysis, read-out: inhibition constant Ki; for Ligand efficiency: from IC50 of radioactive iron uptake in HEK293-hDMT1; for IC50: radioactive iron 1 μM, 15 min incubation, extracellular pH 5.5, HEK293 stably overexpressing hDMT1; for inhibition constant Kii: saturating iron, 1/Vmax vs [I]
T1 construct: DsRED; expressed in transfected cells
T1 sequence (P49281 1-568): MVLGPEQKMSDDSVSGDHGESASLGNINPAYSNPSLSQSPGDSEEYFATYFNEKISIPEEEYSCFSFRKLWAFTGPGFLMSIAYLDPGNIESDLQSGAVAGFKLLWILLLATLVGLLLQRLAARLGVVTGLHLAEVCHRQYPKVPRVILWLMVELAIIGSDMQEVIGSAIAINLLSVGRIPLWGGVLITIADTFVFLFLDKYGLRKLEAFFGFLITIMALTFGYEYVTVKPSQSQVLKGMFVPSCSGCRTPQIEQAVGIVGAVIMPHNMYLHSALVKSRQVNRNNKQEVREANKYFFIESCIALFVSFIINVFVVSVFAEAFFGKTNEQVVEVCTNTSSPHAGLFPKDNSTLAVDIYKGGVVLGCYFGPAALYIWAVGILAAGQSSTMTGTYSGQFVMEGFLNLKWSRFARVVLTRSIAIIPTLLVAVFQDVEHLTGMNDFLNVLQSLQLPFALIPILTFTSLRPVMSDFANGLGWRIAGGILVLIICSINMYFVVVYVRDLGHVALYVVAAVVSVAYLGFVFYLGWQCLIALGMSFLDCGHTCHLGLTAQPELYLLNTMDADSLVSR

[1] = iron precipitation assay (removal of radioactive 55Fe2+ from buffer); assay type: physicochemical; details: compound 10 μM, 15 min
Protocol: Fig. 4 Chemical evidence of divalent metal complexation by hDMT1 inhibitors. (a and b) Isothermal titration calorimetry of pyrazole 13 (0.4 mM) with Cd^2+ (5 mM) in aqueous buffer pH 7.4 and pH 5.5, 25 °C. (c) Calcein quenching assay in aqueous buffer pH 5.5 (2 μM Fe^2+, 10 μM ligand, 1 μM calcein). Fe^2+ (2 μM), ascorbic acid (200 μM) and compounds (20 μM) were incubated for 5 min before the addition of calcein (1 μM) in Krebs buffer at pH 5.5. Fluorescence was measured after 5 min incubation. (d and e) Removal of radioactive ^55Fe^2+ from buffers upon incubation with ligands and centrifugation. ^55Fe^2+ (1 μM) precipitation upon interaction with the indicated compounds (10 μM). ^55Fe^2+ and the indicated compounds were incubated for 15 min, then, an aliquot of the solution supernatant was taken for determination of the remaining ^55Fe^2+. Data was normalized to the values obtained for the Fe^2+ + DMSO (0.1%) solution and represented as mean ± SD (N = 15; 2 independent experiments). Statistical differences were assessed using T-test or Mann–Whitney U test (Fe^2++ DMSO vs. each compound); p > 0.05 = ns; p < 0.05 = *; p < 0.001 = ***. […]
Iron precipitation assay. Polypropylene tubes containing uptake solution (140 mM NaCl, 2.5 mM KCl, 1 mM CaCl2, 1 mM MgCl2, 1.2 mM K2HPO4, 10 mM glucose, 5 mM HEPES, 5 mM MES, pH 7.4) supplemented with 1 µM Ferrous iron (Fe2+), 100 µM Ascorbic Acid, radiolabelled 55Fe2+ (0.5 µCi/mL) and 10 µM of the different compounds under study were incubated for 15 minutes at RT. Then, 10 µL aliquots from each tube were transferred in quadruplicate to a clear bottom, white -well, poly-D-lysine coated 96-well plate (Corning), and 55Fe2+ content was determined by scintillation counting as above described. […]
Statistics. Except when representative experiments are presented, results are shown as Mean ± Standard deviation (SD). Parametric distribution of the averaged values was assessed by […]

Compound	mode of inhibition (hDMT1 (SLC11A2))	Ki (hDMT1 (SLC11A2))	Ligand efficiency (hDMT1 (SLC11A2))	IC50 (hDMT1 (SLC11A2))	potency weaker than originally reported value based on a calcein assay (hDMT1 (SLC11A2); radioactive iron uptake vs reported calcein assay)	inhibition constant Kii (hDMT1 (SLC11A2))	precipitation of Fe2+ ([1]; pH 7.4, 55Fe2+ 1 μM)	improvement of IC50 over initial inhibitor 5 (hDMT1 (SLC11A2); radioactive iron uptake)	precipitation of Fe2+ ([1]; pH 5.5, 55Fe2+ 1 μM)
N=C(N)SCc1cccc2c1oc1c(CSC(=N)N)cccc12 [Compound 1, reference compound]	competitive inhibition	1400 nM	0.35	1760 ± 60 nM	5 fold	15.6 µM	had no effect		
Cc1cc(O)nc(-n2nc(C)cc2C)n1 [Compound 5]				13100 ± 700 nM			had no effect		
c1ccc(-c2ccccn2)nc1 [bipyridine]							had no effect		

More lines, main results first:

mode of inhibition (hDMT1 (SLC11A2))	Ki (hDMT1 (SLC11A2))	Ligand efficiency (hDMT1 (SLC11A2))	IC50 (hDMT1 (SLC11A2))	potency weaker than originally reported value based on a calcein assay (hDMT1 (SLC11A2); radioactive iron uptake vs reported calcein assay)	inhibition constant Kii (hDMT1 (SLC11A2))	precipitation of Fe2+ ([1]; pH 7.4, 55Fe2+ 1 μM)	improvement of IC50 over initial inhibitor 5 (hDMT1 (SLC11A2); radioactive iron uptake)	Compound	precipitation of Fe2+ ([1]; pH 5.5, 55Fe2+ 1 μM)
						induced significant precipitation		Cc1nn(-c2ccccn2)c(O)c1C(=O)Nc1cccc(C(F)(F)F)c1 [Compound 3, reference compound]	only observed precipitation with the literature inhibitor 3; also recorded: high precipitation of iron
non-competitive inhibitor	2000 nM	0.45	1100 ± 10 nM		1.7 µM	induced significant precipitation	10 fold	Cc1cc(=O)[nH]c(-n2nc3c(c2C)CCCC3)n1 [Compound 13]	

From paper PMC7649969, “Pyrazolyl-pyrimidones inhibit the function of human solute carrier protein SLC11A2 (hDMT1) by metal chelation” (RSC Medicinal Chemistry, 2020)
